The results in this text go back to patent US8575158B2, “1-phenyl-substituted heterocyclyl derivatives and their use as prostaglandin D2 receptor modulators” (Actelion Pharmaceuticals Ltd., priority 2010, dated 2013).

The target of the assay is T1, hCRTH2 receptor (Homo sapiens, UniProt Q9Y5Y4).
T1 construct: expressed in transfected cells; host or cells: HEK293
T1 sequence (Q9Y5Y4 1-395): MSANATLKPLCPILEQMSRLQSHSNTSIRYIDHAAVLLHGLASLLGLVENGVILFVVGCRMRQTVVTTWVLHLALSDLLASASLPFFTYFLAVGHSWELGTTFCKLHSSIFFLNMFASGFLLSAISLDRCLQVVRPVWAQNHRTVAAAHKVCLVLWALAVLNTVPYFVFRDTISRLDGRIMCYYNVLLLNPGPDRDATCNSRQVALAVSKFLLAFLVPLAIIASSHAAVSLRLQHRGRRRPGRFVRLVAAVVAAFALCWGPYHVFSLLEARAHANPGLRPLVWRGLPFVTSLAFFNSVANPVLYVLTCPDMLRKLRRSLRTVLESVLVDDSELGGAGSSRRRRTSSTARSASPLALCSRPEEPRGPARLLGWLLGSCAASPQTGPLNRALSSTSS
Nature of the assay: Radioligand displacement assay (3H-PGD2) on hCRTH2 receptor membranes. The assay is classed as binding. To be noted: antagonistic activity, 3H-PGD2 radioligand displacement, HEK293-hCRTH2 membranes.
`Cc1cc2ccccc2n1CCC(=O)N1CCc2ccccc2C1c1cc(Cl)ccc1OCC(=O)O` (racemic) [Example 446] displayed an IC50 of 175 nM.
In the case of `Cc1cn(CCC(=O)N2CCc3ccccc3C2c2cc(Cl)ccc2OCC(=O)O)c2ccccc12` (racemic) [Example 447] it was 13.9 nM; in that of `O=C(O)COc1ccc(Cl)cc1C1c2ccccc2CCN1C(=O)CCn1ncc2ccccc21` (racemic) [Example 448], 35.4 nM; in that of `O=C(O)COc1ccc(Cl)cc1C1c2ccccc2CCN1C(=O)CCN1CCCc2ccccc21` (racemic) [Example 449], 26.1 nM.
In the case of `CC(C)COCCC(=O)N1CCc2ccccc2C1c1cc(Cl)ccc1OCC(=O)O` (racemic) [Example 450] it was 403 nM.
The value for `O=C(O)COc1ccc(Cl)cc1C1c2ccccc2CCN1C(=O)CCn1cnc2ccccc21` (racemic) [Example 451] was 64.1 nM; that for `Cc1csc(=O)n1CCC(=O)N1CCc2ccccc2C1c1cc(Cl)ccc1OCC(=O)O` (racemic) [Example 452] was 500 nM.
As to `O=C(O)COc1ccc(Cl)cc1C1c2ccccc2CCN1C(=O)CCN1CCSC1=O` (racemic) [Example 453], the IC50 came to 312 nM.
As for `Cc1ccc(CCC(=O)N2CCc3ccccc3C2c2cc(Cl)ccc2OCC(=O)O)c(C)c1` (racemic) [Example 454], the IC50 came to 69.6 nM.
`Cc1ccc(CCC(=O)N2CCc3ccccc3C2c2cc(Cl)ccc2OCC(=O)O)c(C)n1` (racemic) [Example 455] yielded an IC50 of 200 nM.
The compound `Cc1ccc(OCC(=O)N2CCc3ccccc3C2c2cc(Cl)ccc2OCC(=O)O)c(C)c1` (racemic) [Example 456] gave a half-inhibitory concentration (IC50) of 43.6 nM.
The value for `Cc1c(CCC(=O)N2CCc3ccccc3C2c2cc(Cl)ccc2OCC(=O)O)c2ccccc2n1C` (racemic) [Example 457] was 60.8 nM; that for `COc1ccc2c(c1)c(CCC(=O)N1CCc3ccccc3C1c1cc(Cl)ccc1OCC(=O)O)cn2C` (racemic) [Example 458] was 47.5 nM; that for `COc1ccc2c(ccn2CCC(=O)N2CCc3ccccc3C2c2cc(Cl)ccc2OCC(=O)O)c1` (racemic) [Example 459] was 160 nM.
The value for `O=C(O)COc1ccc(Cl)cc1C1c2ccccc2CCN1C(=O)CCc1c[nH]c2ccccc12` (racemic) [Example 463] was 12.1 nM.
In the case of `CC1(C)CC1C(=O)N1CCc2ccccc2C1c1cc(Cl)ccc1OCC(=O)O` (racemic) [Example 466, (±)-{4-Chloro-2-[2-(2,2-dimethyl-cyclopropanecarbonyl)-1,2,3,4-tetrahydro-isoquinolin-1-yl]-phenoxy}-acetic acid] it was 24.2 nM; in that of `Cc1nc(C)c(C2CC2C(=O)N2CCc3ccccc3C2c2cc(Cl)ccc2OCC(=O)O)s1` (racemic) [Example 467, (±)-(4-Chloro-2-{2-[2-(2,4-dimethyl-thiazol-5-yl)-cyclopropanecarbonyl]-1,2,3,4-tetrahydro-isoquinolin-1-yl}-phenoxy)-acetic acid], 396 nM; in that of `Cc1ccc(OCC(=O)N2CCc3ccccc3C2c2cc(Cl)ccc2OCC(=O)O)cn1` (racemic) [Example 468], 759 nM.
Turning to `Cc1ncccc1OCC(=O)N1CCc2ccccc2C1c1cc(Cl)ccc1OCC(=O)O` (racemic) [Example 469], the IC50 was found to be 132 nM.
In the case of `O=C(O)COc1ccc(Cl)cc1C1c2ccccc2CCN1C(=O)COc1cncc(Cl)c1` (racemic) [Example 470] it was 152 nM.
Take `O=C(O)COc1ccc(Cl)cc1C1c2ccccc2CCN1C(=O)COc1cccnc1Cl` (racemic) [Example 471]: the IC50 came out at 87.6 nM.
The value for `O=C(O)COc1ccc(Cl)cc1C1c2ccccc2CCN1C(=O)COc1ccc(Cl)nc1` (racemic) [Example 472] was 109 nM; that for `O=C(O)COc1ccc(Cl)cc1C1c2ccccc2CCN1C(=O)COc1cc(Cl)nc(Cl)c1` (racemic) [Example 473] was 650 nM.
The value for `Cc1cncc(OCC(=O)N2CCc3ccccc3C2c2cc(Cl)ccc2OCC(=O)O)c1` (racemic) [Example 474] was 198 nM.
The value for `O=C(O)COc1ccc(Cl)cc1C1c2ccccc2CCN1C(=O)COc1cccnc1OCCO` (racemic) [Example 475] was 337 nM; that for `COc1ccc(OCC(=O)N2CCc3ccccc3C2c2cc(Cl)ccc2OCC(=O)O)c(OC)n1` (racemic) [Example 476] was 164 nM; that for `COc1cncc(OCC(=O)N2CCc3ccccc3C2c2cc(Cl)ccc2OCC(=O)O)c1` (racemic) [Example 477] was 288 nM.
Compound `O=C(O)COc1ccc(Cl)cc1C1c2ccccc2CCN1C(=O)COc1cncc(F)c1` (racemic) [Example 478] came in with an IC50 of 232 nM.
`NC(=O)c1ncccc1OCC(=O)N1CCc2ccccc2C1c1cc(Cl)ccc1OCC(=O)O` (racemic) [Example 479] showed a half-inhibitory concentration (IC50) of 199 nM.
The value for `N#Cc1ncccc1OCC(=O)N1CCc2ccccc2C1c1cc(Cl)ccc1OCC(=O)O` (racemic) [Example 480] was 104 nM.
The value for `O=C(O)COc1ccc(Cl)cc1C1c2ccccc2CCN1C(=O)COc1ccc(C(F)(F)F)nc1` (racemic) [Example 481] was 143 nM.
The value for `O=C(O)COc1ccc(Cl)cc1C1c2ccccc2CCN1C(=O)COc1cccnc1F` (racemic) [Example 482] was 199 nM; that for `Cn1cnc2cc(OCC(=O)N3CCc4ccccc4C3c3cc(Cl)ccc3OCC(=O)O)cnc21` (racemic) [Example 483] was 470 nM.
As to `COc1ncc(C)cc1OCC(=O)N1CCc2ccccc2C1c1cc(Cl)ccc1OCC(=O)O` (racemic) [Example 484], the half-inhibitory concentration (IC50) is 161 nM. Against the preceding compound, the IC50 is about 2.9-fold lower.
The value for `COc1cc(OCC(=O)N2CCc3ccccc3C2c2cc(Cl)ccc2OCC(=O)O)cnc1OC` (racemic) [Example 485] was 316 nM.
In the case of `COc1ccc(OCC(=O)N2CCc3ccccc3C2c2cc(Cl)ccc2OCC(=O)O)cn1` (racemic) [Example 486] it was 371 nM.
In the case of `O=C(O)COc1ccc(Cl)cc1C1c2ccccc2CCN1C(=O)COc1cnccc1Cl` (racemic) [Example 487] it was 400 nM; in that of `Cc1cn(CC(=O)N2CCc3ccccc3C2c2cc(Cl)ccc2OCC(=O)O)c2ccccc12` (racemic) [Example 488], 108 nM.
For the compound `COc1ccc2c(ccn2CC(=O)N2CCc3ccccc3C2c2cc(Cl)ccc2OCC(=O)O)c1` (racemic) [Example 489], the IC50 was 319 nM.
In the case of `O=C(O)COc1ccc(Cl)cc1C1c2ccccc2CCN1C(=O)NCc1ccccc1Cl` (racemic) [Example 490] it was 15.1 nM; in that of `O=C(O)COc1ccc(Cl)cc1C1c2ccccc2CCN1C(=O)NCc1cccc(F)c1` (racemic) [Example 491], 19.8 nM; in that of `O=C(O)COc1ccc(Cl)cc1C1c2ccccc2CCN1C(=O)NCc1ccccc1` (racemic) [Example 492], 16.6 nM.
The value for `O=C(O)COc1ccc(Cl)cc1C1c2ccccc2CCN1C(=O)NCCc1ccccc1` (racemic) [Example 493] was 22.5 nM; that for `O=C(O)COc1ccc(Cl)cc1C1c2ccccc2CCN1C(=O)NCc1ccc(F)cc1` (racemic) [Example 494] was 17 nM; that for `O=C(O)COc1ccc(Cl)cc1C1c2ccccc2CCN1C(=O)NCc1ccccc1F` (racemic) [Example 495] was 24.1 nM.
The value for `CCCCNC(=O)N1CCc2ccccc2C1c1cc(Cl)ccc1OCC(=O)O` (racemic) [Example 496] was 62.7 nM; that for `O=C(O)COc1ccc(F)cc1C1c2cc(-c3ccc(F)cc3)ccc2CCN1C(=O)OCc1ccccc1` (racemic) [Example 497] was 793 nM; that for `O=C(O)COc1ccc(F)cc1C1c2cc(-c3cncnc3)ccc2CCN1C(=O)OCc1ccccc1` (racemic) [Example 498] was 381 nM.
The compound `O=C(O)COc1ccc(F)cc1C1c2ccccc2CN1C(=O)OCc1ccccc1` (racemic) [Example 499] registered a 50% inhibitory concentration (IC50) of 25.4 nM.
Compound `O=C(O)COc1ccc(Cl)cc1C1c2ccc(F)cc2CN1C(=O)OCc1ccccc1` (racemic) [Example 500] showed an IC50 of 12.9 nM.
The value for `O=C(O)COc1ccc(Cl)cc1C1c2cccc(F)c2CN1C(=O)OCc1ccccc1` (racemic) [Example 501] was 8.12 nM; that for `COc1ccccc1OCC(=O)N1Cc2ccccc2C1c1cc(Cl)ccc1OCC(=O)O` (racemic) [Example 502] was 56.2 nM.
`O=C(O)COc1ccc(Cl)cc1C1c2ccccc2CN1C(=O)COc1ccc(F)cc1` (racemic) [Example 504] returned an IC50 of 33 nM.
In the case of `O=C(O)COc1ccc(Cl)cc1C1c2ccccc2CN1C(=O)CCc1cccnc1` (racemic) [Example 505] it was 189 nM; in that of `Cc1ccccc1CCC(=O)N1Cc2ccccc2C1c1cc(Cl)ccc1OCC(=O)O` (racemic) [Example 506], 78.8 nM.
The value for `O=C(O)COc1ccc(Cl)cc1C1c2ccccc2CN1C(=O)Cn1ccc2ccccc21` (racemic) [Example 507] was 129 nM; that for `CCn1c(C)c(CCC(=O)N2Cc3ccccc3C2c2cc(Cl)ccc2OCC(=O)O)c2ccccc21` (racemic) [Example 508] was 127 nM.
In the case of `O=C(O)COc1ccc(Cl)cc1C1c2ccccc2CN1C(=O)COc1cccc2cccnc12` (racemic) [Example 509] it was 37.8 nM; in that of `Cc1[nH]c2ccccc2c1CCC(=O)N1Cc2ccccc2C1c1cc(Cl)ccc1OCC(=O)O` (racemic) [Example 510], 180 nM.

A word on the IC50: it is the point on the concentration scale where inhibition reaches its midpoint. A lower IC50 goes with greater potency.
